What was measured:
Type in all cases: cell-based, human
[1] = tested on: oral (buccal) mucosa cells (TR146); assay: Restoration of mitochondrial membrane potential (JC-1) against radiation induced damage; settings: for MMP: red/green JC-1 fluorescence ratio
Experimental: (§1) Oral buccal mucosal cells (TR146) were incubated overnight in 5% CO2 incubator at 37° C. for 24 h. […] After 24 h of treatment, cells were exposed to damage (5-FU 5 mM) for 1.25 h for chemotherapy induced inflammation and exposed to gamma radiation (3.5 kGy) using Cobalt 60 for radiation induced inflammation. After the exposure, the anti-apoptotic effect of SEQ ID NO 2 was determined by restoration of mitochondrial membrane depolarization by JC-1 staining and reduction in apoptotic cell populations (Annexin positive and subG0/G1 cells in cell cycle analysis).
(§2) After incubation, the supernatants were discarded and 100 μl of JC1-dye solution (prepared by diluting 1 mM DMSO stock into 10 μM in 1×PBS) was added to each well. The cells were then incubated with the dye in CO2 incubator at 37° C. for 15 min, after which the supernatant was removed, and the cells were washed twice with 1×PBS. 100 μl of 1×PBS was finally added to each well. Red fluorescence (excitation 550 nm, emission 600 nm) and green fluorescence (excitation 485 nm, emission 535 nm) were measured using Biotek Synergy HT plate reader. The mitochondrial membrane potential (Δψm) was calculated as the ratio of intensity of red fluorescence to intensity of green fluorescence.
(§3) The percentage increase/restoration in mitochondrial membrane potential (MMP) was calculated as: % Increase=[(R−X)/R]*100 • Where, X=Δψm corresponding to TI+5-FU treated cells or TI+radiation treated cells; R=Δψm corresponding to control cells (FU damaged or Radiation damaged alone)

[2] = tested on: oral (buccal) mucosa cells (TR146); assay: Annexin positive cell population against 5-FU damage
[3] = tested on: oral (buccal) mucosa cells (TR146); assay: Restoration of mitochondrial membrane potential (JC-1) against 5-FU induced damage; settings: for MMP: mitochondrial membrane potential, red/green JC-1 fluorescence ratio
Experimental: as §1, §2, §3

NF-kB [4] = assay: Multiplex analysis, chemotherapy (5-FU), TR146 cell lysates
Experimental: (§4) Oral buccal mucosal cells (TR146) cells were incubated overnight at 37° C. in 5% CO2 incubator. […] The cells were then stimulated with 5-FU (10 mM) for another 24h for chemotherapy and with gamma radiation (3.5 kGy) using Cobalt 60 for radiotherapy. After 24 h, cell culture supernatants were collected from each well and stored at −20° C. till multiplex analysis. For NF-kB estimations, cell lysates were prepared. Levels of biomarkers were estimated using Magpix® multiplex machine. The cells treated with Amifostine (along with 5-FU or radiation) were considered as positive control (PC). Untreated cells (5-FU or radiation alone treated) were used as negative control (NC).
(§5) The percent modulation in each sample was determined as follows:
(§6) [{Concentration of biomarkers (pg/ml) in Control cells (5-FU or radiation alone treated)−Concentration of biomarkers (pg/ml) in SEQ ID NO: 2+5-FU or radiation treated cells)}/Concentration of biomarkers (pg/ml) in Control cells (5-FU or radiation alone treated)]*100

[5] = tested on: oral (buccal) mucosa cells (TR146); assay: Sub(G0/G1) cell population (cell cycle) against 5-FU induced damage; settings: for % Decrease in Apoptotic cells (with respect to control): Sub G0/G1
Experimental: To determine the effect of test item on cell cycle, oral buccal mucosal cells (TR146) were incubated overnight in 5% CO2 incubator at 37° C. for 24 h. […] After 24 h of treatment, cells were exposed to chemotherapy (5-FU 10 mM) for 24 h or radiotherapy (Gamma radiation (3.5 kGy) using Cobalt 60) for 2 h.
After incubation, cells were harvested by trypsinization and processed for Cell cycle assay. Accordingly, cells were harvested into prelabeled centrifuge tubes and centrifuged at 450 g for 5 min at room temperature (RT, low brake). The supernatants were removed carefully and discarded. 1 ml of 1× phosphate buffer saline (PBS) was added to the pellet and resuspended gently to make homogenous suspension. Cells were centrifuged at 450 g for 5 min, RT (low brake). The supernatant was carefully removed leaving behind approx. 100 μl of PBS. Cells were resuspended gently yet thoroughly in residual PBS. Ice-cold 70% ethanol (100 μl) was added drop-wise into cells in each tube while vortexing at low speed (fixation step). Cells stored at 4° C. for 24 h were centrifuged at 450 g for 5 min, RT (low brake). The supernatant was carefully removed without touching the pellet and discarded. 1 ml of 1×PBS was added into pellet and resuspended gently. Cells were incubated for 1 minute at RT. Cells were centrifuged at 450 g for 5 min, RT (low brake). The supernatant was removed carefully without touching the pellet, leaving behind approx. 20-50 μl of PBS. 200 μl of cell cycle reagent was added into each tube. Cells were resuspended gently and mixed. Cells were incubated for 30 min at RT in the dark. The stained samples were transferred into 96-well plates and acquired on flow cytometer (Guava technologies). Percentage of cells in Sub (G0/G1) phase were determined based on the concept that cell cycle reagent contains PI stain, which stains DNA of cells in different phases of cell cycle; Sub (G0/G1), G1, S, G2 and M. Cells in Sub (G0/G1) phase correspond to apoptotic cells. Percent inhibition in apoptotic cells is determined by the formula:
=[(% Sub(G0/G1) cells in 5-FU/radiation alone)−(% Sub(G0/G1) cells in TI+5-FU/radiation)/% Sub(G0/G1) cells in 5-FU/radiation alone]*100

NF-kB [6] = assay: Multiplex analysis, radiotherapy, TR146 cell lysates
Experimental: as §4, §5, §6

[7] = 0.1 μg/ml + Radiation (3.5 kGy)

In the case of `NCCCNCCSP(=O)(O)O` [Amifostine, reference compound], the “% Increase in MMP (with respect to control)” value (shortened to “% Increase in MMP”) [1, 7] is reported as 28.2%, the MMP [1, 7] is reported as 5.90 and the “% Increase in MMP” value ([1]; 1 μg/ml + Radiation (3.5 kGy)) is reported as 39.7%. For the same compound, the MMP ([1]; 1 μg/ml + Radiation (3.5 kGy)) was 6.43, the “% Increase in MMP” value ([1]; 10 μg/ml + Radiation (3.5 kGy)) was 35.2% and the MMP ([1]; 10 μg/ml + Radiation (3.5 kGy)) was 6.23. The “% Apoptotic cells (Annexin +ve)” value ([2]; 1 μg/ml + 5FU (10 mM)) was 2.4%, the “% Decrease in Apoptotic cells (with respect to 5-FU)” value (“% Decrease … (with respect to 5-FU)” below) ([2]; 1 μg/ml + 5FU (10 mM)) was 85.7% and the “% Apoptotic cells (Annexin +ve)” value ([2]; 10 μg/ml + 5FU (10 mM)) was 2.6%. The “% Decrease … (with respect to 5-FU)” value ([2]; 10 μg/ml + 5FU (10 mM)) was 84.5%, the “% Apoptotic cells (Annexin +ve)” value ([2]; 50 μg/ml + 5FU (10 mM)) was 2.8% and the “% Decrease … (with respect to 5-FU)” value ([2]; 50 μg/ml + 5FU (10 mM)) was 82.9%. The “% Increase in MMP” value ([3]; 1 μg/ml + 5FU) was 68.7%, the MMP ([3]; 1 μg/ml + 5FU) was 14.3 and the “% Increase in MMP” value ([3]; 5 μg/ml + 5FU) was 64.9%. The MMP ([3]; 5 μg/ml + 5FU) was 14, the “% Increase in MMP” value ([3]; 10 μg/ml + 5FU) was 85.3% and the MMP ([3]; 10 μg/ml + 5FU) was 15.7. For the same compound, the “% Increase in MMP” value ([3]; 25 μg/ml + 5FU) was 90%, the MMP ([3]; 25 μg/ml + 5FU) was 16.1 and the “% Increase in MMP” value ([3]; 50 μg/ml + 5FU) was 105.2%. For the same compound, the MMP ([3]; 50 μg/ml + 5FU) was 17.4, the “Percentage Inhibition NF-kB” value (NF-kB [4]; 1 μg/ml + 5-FU (10 mM)) was 100% and the “Percentage Inhibition NF-kB” value (NF-kB [4]; 10 μg/ml + 5-FU (10 mM)) was 48.2%. For the same compound, the “Percentage Inhibition NF-kB” value (NF-kB [4]; 50 μg/ml + 5-FU (10 mM)) was 14.2%, the “% Apoptotic cells (Sub G0/G1)” value ([5]; 1 μg/ml + 5FU (10 mM)) was 13% and the “% Decrease in Apoptotic cells (with respect to control)” value (“% Decrease … (with respect to control)” for short) ([5]; 1 μg/ml + 5FU (10 mM)) was 58%. For the same compound, the “% Apoptotic cells (Sub G0/G1)” value ([5]; 10 μg/ml + 5FU (10 mM)) was 11.4%, the “% Decrease … (with respect to control)” value ([5]; 10 μg/ml + 5FU (10 mM)) was 63.2% and the “% Apoptotic cells (Sub G0/G1)” value ([5]; 25 μg/ml + 5FU (10 mM)) was 17%. The “% Decrease … (with respect to control)” value ([5]; 25 μg/ml + 5FU (10 mM)) was 45%, the “% Apoptotic cells (Sub G0/G1)” value ([5]; 50 μg/ml + 5FU (10 mM)) was 15.1% and the “% Decrease … (with respect to control)” value ([5]; 50 μg/ml + 5FU (10 mM)) was 50.9%. For the same compound, the “Percentage Inhibition NF-kB” value (NF-kB [6]; [7]) was 15.8% and the “Percentage Inhibition NF-kB” value (NF-kB [6]; 10 μg/ml + Radiation (3.5 kGy)) was 17.7%.

— patent US20250064890A1, “PROTEIN COMPOSITIONS FOR THE TREATMENT OF INFLAMMATORY DISEASES” (Unichem Laboratories Limited, priority 2021, published 2025)
